# How the values were obtained:
# [1] = molecular target: T1, ABCG2 (Homo sapiens, UniProt Q9UNQ0); assay: Inhibition of recombinant human GFP-fused ABCG2 expressed in MDCK2 cells assessed as reduction in Hoechst 33342 efflux at 10 uM preincubated for 30 mins followed by Hoechst 33342 addition measured immediately at 60 sec time interval for 120 mins by fluorescence assay relative to XR9577; type: cell-based, MDCK-II; conditions: MDCK2 cells expressing recombinant human GFP-fused ABCG2, probe Hoechst 33342, read-out: Imax
# T1 sequence (Q9UNQ0 whole entry): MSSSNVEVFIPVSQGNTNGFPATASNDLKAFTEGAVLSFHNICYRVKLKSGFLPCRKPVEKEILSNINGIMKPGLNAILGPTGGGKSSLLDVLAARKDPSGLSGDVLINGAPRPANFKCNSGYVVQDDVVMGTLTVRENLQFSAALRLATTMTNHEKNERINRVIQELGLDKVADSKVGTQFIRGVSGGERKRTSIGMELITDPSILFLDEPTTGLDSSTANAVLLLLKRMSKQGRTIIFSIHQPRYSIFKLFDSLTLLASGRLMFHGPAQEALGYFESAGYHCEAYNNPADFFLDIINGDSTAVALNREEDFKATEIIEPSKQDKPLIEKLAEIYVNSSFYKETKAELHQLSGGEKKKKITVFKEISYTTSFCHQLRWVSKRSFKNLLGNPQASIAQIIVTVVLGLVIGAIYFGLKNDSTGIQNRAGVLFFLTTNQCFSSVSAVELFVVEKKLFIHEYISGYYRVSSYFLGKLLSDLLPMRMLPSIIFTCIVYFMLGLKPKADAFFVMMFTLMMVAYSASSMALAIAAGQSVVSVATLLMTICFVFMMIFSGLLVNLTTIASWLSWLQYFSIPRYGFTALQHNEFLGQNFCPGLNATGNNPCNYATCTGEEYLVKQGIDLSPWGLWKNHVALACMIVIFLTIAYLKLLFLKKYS
# [2] = molecular target: T2, Broad substrate specificity ATP-binding cassette transporter ABCG2 (Homo sapiens, UniProt Q9UNQ0); assay: Inhibition of recombinant human GFP-fused ABCG2 expressed in MDCK2 cells assessed as reduction in Hoechst 33342 efflux preincubated for 30 mins followed by Hoechst 33342 addition measured immediately at 60 sec time interval for 120 mins by fluorescence assay; type: cell-based, MDCK-II
# T2 sequence (Q9UNQ0 whole entry): T1 sequence (Q9UNQ0 whole entry)
# [3] = molecular target: T3, ABCB1 (Homo sapiens, UniProt P08183); assay: Inhibition of ABCB1 in human A2780/ADR cells assessed as reduction in calcien-AM efflux at 10 uM preincubated for 30 mins followed by calcien-AM addition measured immediately at 60 sec time interval for 60 mins by fluorescence assay relative to cyclosporine A; type: cell-based; conditions: probe calcein-AM (printed calcien-AM), read-out: Imax
# T3 sequence (P08183 whole entry): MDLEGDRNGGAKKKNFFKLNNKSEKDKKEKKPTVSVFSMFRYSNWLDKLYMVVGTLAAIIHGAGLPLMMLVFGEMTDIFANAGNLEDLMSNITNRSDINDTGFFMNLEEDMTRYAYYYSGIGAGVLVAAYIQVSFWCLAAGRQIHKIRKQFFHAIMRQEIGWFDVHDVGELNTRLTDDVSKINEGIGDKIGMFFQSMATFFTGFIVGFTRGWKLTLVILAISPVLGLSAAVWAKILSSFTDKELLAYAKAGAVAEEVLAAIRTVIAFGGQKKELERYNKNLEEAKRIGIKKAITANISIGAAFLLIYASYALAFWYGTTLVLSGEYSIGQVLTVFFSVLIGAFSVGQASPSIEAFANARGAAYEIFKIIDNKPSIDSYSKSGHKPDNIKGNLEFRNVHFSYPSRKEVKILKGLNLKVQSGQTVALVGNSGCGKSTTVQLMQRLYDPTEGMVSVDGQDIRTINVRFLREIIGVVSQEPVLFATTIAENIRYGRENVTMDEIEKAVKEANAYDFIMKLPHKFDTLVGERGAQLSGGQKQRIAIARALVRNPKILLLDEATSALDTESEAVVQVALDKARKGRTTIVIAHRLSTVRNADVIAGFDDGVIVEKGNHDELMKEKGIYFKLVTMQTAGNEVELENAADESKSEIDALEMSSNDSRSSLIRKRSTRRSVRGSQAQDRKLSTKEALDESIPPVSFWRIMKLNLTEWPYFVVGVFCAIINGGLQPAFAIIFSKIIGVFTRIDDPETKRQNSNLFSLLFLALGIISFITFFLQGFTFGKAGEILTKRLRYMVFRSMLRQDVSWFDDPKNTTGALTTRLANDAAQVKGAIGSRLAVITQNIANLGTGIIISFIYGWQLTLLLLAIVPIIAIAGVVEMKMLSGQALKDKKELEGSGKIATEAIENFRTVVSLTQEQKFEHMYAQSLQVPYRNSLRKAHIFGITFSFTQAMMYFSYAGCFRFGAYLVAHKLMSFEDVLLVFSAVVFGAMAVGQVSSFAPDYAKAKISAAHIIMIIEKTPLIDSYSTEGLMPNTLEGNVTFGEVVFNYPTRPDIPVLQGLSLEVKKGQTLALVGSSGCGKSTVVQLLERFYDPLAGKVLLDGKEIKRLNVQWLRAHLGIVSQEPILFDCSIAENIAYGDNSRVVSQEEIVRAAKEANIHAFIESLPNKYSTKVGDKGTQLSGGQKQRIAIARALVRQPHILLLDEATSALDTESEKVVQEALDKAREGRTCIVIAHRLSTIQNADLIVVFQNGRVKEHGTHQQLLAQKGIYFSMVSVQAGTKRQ
# [4] = molecular target: ATP-dependent translocase ABCB1 (Homo sapiens, UniProt P08183); assay: Inhibition of ABCB1 in human A2780/ADR cells assessed as reduction in calcien-AM efflux preincubated for 30 mins followed by calcien-AM addition measured immediately at 60 sec time interval for 60 mins by fluorescence assay; type: cell-based
# Chain of ATP-dependent translocase ABCB1 (P08183 whole entry, the tested form may be a part): as the sequence (P08183 whole entry) above
# [5] = molecular target: T1, ABCG2; assay: Inhibition of recombinant human GFP-fused ABCG2 expressed in MDCK2 cells assessed as reduction in pheophorbide A efflux at 10 uM preincubated for 30 mins followed by pheophorbide A addition measured after 2 hrs by flow cytometry relative to XR9577; type: cell-based, MDCK-II; conditions: MDCK2 cells expressing recombinant human GFP-fused ABCG2, probe pheophorbide A, read-out: Imax
# [6] = molecular target: T2, Broad substrate specificity ATP-binding cassette transporter ABCG2; assay: Inhibition of recombinant human GFP-fused ABCG2 expressed in MDCK2 cells assessed as reduction in pheophorbide A efflux preincubated for 30 mins followed by pheophorbide A addition measured after 2 hrs by flow cytometry; type: cell-based, MDCK-II
# [7] = molecular target: T3, ABCB1; assay: Potency index, ratio of cyclosporine A IC50 to compound IC50 for ABCB1 in human A2780/ADR cells; type: cell-based; conditions: read-out: Ratio IC50
# [8] = molecular target: T2, Broad substrate specificity ATP-binding cassette transporter ABCG2; assay: Non-competitive inhibition of recombinant human GFP-fused ABCG2 expressed in MDCK2 cells assessed as reduction in pheophorbide A efflux at 0.0178 to 0.1 uM preincubated for 30 mins followed by addition of varying levels of pheophorbide A by Lineweaver-Burk plot analysis; type: cell-based; conditions: mdck-ii
# [9] = molecular target: T2, Broad substrate specificity ATP-binding cassette transporter ABCG2; assay: Competitive inhibition of recombinant human GFP-fused ABCG2 expressed in MDCK2 cells assessed as reduction in Hoechst 33342 efflux at 0.01 to 0.1 uM preincubated for 30 mins followed by addition of varying levels of Hoechst 33342 by Lineweaver-Burk plot analysis; type: cell-based; conditions: mdck-ii
# [10] = molecular target: T1, ABCG2; assay: Potency index, ratio of Ko143 IC50 to compound IC50 for recombinant human GFP-fused ABCG2 expressed in MDCK2 cells assessed as reduction in Hoechst 33342 efflux; type: cell-based; conditions: MDCK2 cells expressing recombinant human GFP-fused ABCG2, probe Hoechst 33342, read-out: Ratio IC50
# [11] = molecular target: T1, ABCG2; assay: Potency index, ratio of Ko143 IC50 to compound IC50 for recombinant human GFP-fused ABCG2 expressed in MDCK2 cells assessed as reduction in pheophorbide A efflux; type: cell-based; conditions: MDCK2 cells expressing recombinant human GFP-fused ABCG2, probe pheophorbide A, read-out: Ratio IC50
Compound,"Emax at 2 h, 10 µM [1] [%]",IC50 [2] [nM],"inhibition at 1 h, 10 µM [3] [%]",IC50 [4] [µM],"Emax at 2 h, 10 µM [5] [%]",IC50 [6] [nM],selectivity ratio [7],inhibition (INH) [8],inhibition (INH) [9],selectivity ratio [10],selectivity ratio [11]
CCOc1ccc(-n2nnc(-c3ccccc3NC(=O)c3ccccc3[N+](=O)[O-])n2)cc1,72,308,,,,,,,,,
COc1ccc(C(=O)Nc2ccccc2-c2nnn(-c3ccc(OC)c(OC)c3)n2)cc1,100,319,≤ 25,3.2,,,,,,,
COc1ccc(-n2nnc(-c3ccccc3NC(=O)c3ccccc3[N+](=O)[O-])n2)cc1,76,266,≤ 25,6.2,61,311,,,,,
O=C(Nc1ccccc1-c1nnn(-c2ccccc2)n1)c1ccccc1[N+](=O)[O-],57,280,< 10,,76,458,,,,,
CCCc1ccc(C(=O)Nc2ccccc2-c2nnn(-c3ccccc3)n2)cc1,100,212,≤ 25,8.14,85,96.6,,,,,
CCCc1ccc(C(=O)Nc2ccccc2-c2nnn(-c3ccc(O)cc3)n2)cc1,106,204,≤ 25,0.434,107,129,3,,,,
CCCc1ccc(C(=O)Nc2ccccc2-c2nnn(-c3ccc(SC)cc3)n2)cc1,76,783,,,69,679,,,,,
COc1ccc(C(=O)Nc2ccccc2-c2nnn(-c3ccc(Oc4ccccc4)cc3)n2)cc1,,> 10000,,,,,,,,,
COc1ccc(C(=O)Nc2ccccc2-c2nnn(-c3ccccc3)n2)cc1,101,200,≤ 25,5.47,93,208,,Active,Active,,
O=C(Nc1ccccc1-c1nnn(-c2ccccc2)n1)c1ccc(C(F)(F)F)cc1,100,4390,,,100,3630,,,,,
O=C(Nc1ccccc1-c1nnn(-c2ccccc2)n1)c1ccccc1,90,66.9,≤ 25,21.8,109,64,,,,3 to 4,3 to 4
CCCc1ccc(C(=O)Nc2ccccc2-c2nnn(-c3ccc(Oc4ccccc4)cc3)n2)cc1,,> 10000,,,,,,,,,
CCOc1ccc(-n2nnc(-c3ccccc3NC(=O)c3ccc(OC)cc3)n2)cc1,50,793,,,,,,,,,
COc1ccc(-n2nnc(-c3ccccc3NC(=O)c3ccc(C(F)(F)F)cc3)n2)cc1OC,80,330,≤ 25,10.2,,,,,,,
COc1ccc(-n2nnc(-c3ccccc3NC(=O)c3cccc([N+](=O)[O-])c3)n2)cc1,57,168,,,56,247,,,,,
CSc1ccc(-n2nnc(-c3ccccc3NC(=O)c3ccc(C(F)(F)F)cc3)n2)cc1,,> 10000,,,,,,,,,
O=C(Nc1ccccc1-c1nnn(-c2ccccc2)n1)c1cccc([N+](=O)[O-])c1,91,127,≤ 25,9.4,98,123,,,,,
COc1ccc(-n2nnc(-c3ccccc3NC(=O)c3ccccc3)n2)cc1OC,104,230,≤ 25,4.03,95,212,,,,,
O=C(Nc1ccccc1-c1nnn(-c2ccccc2)n1)c1ccc([N+](=O)[O-])cc1,60,150,,,69,321,,,,,
COc1ccc(C(=O)Nc2ccccc2-c2nnn(-c3ccc(C(C)C)cc3)n2)cc1,97,136,≤ 25,19.4,95,131,,,,,
CSc1ccc(-n2nnc(-c3ccccc3NC(=O)c3ccccc3[N+](=O)[O-])n2)cc1,91,221,≤ 25,9.78,77,117,,,,,
CSc1ccc(-n2nnc(-c3ccccc3NC(=O)c3ccc([N+](=O)[O-])cc3)n2)cc1,,> 10000,,,,,,,,,
COc1ccc(C(=O)Nc2ccccc2-c2nnn(-c3ccc(Cl)cc3)n2)cc1,59,223,,,,,,,,,
CC(C)c1ccc(-n2nnc(-c3ccccc3NC(=O)c3ccc(C(F)(F)F)cc3)n2)cc1,,> 10000,,,,,,,,,
COc1ccc(C(=O)Nc2ccccc2-c2nnn(-c3ccccc3)n2)cc1OC,102,832,,,86,511,,,,,
COc1ccc(C(=O)Nc2ccccc2-c2nnn(-c3ccc(SC)cc3)n2)cc1,100,132,≤ 25,4.2,85,251,,,,,
O=C(Nc1ccccc1-c1nnn(-c2ccc(Cl)cc2)n1)c1ccc([N+](=O)[O-])cc1,,> 10000,,,,,,,,,
CCCc1ccc(C(=O)Nc2ccccc2-c2nnn(-c3ccc(OC(=O)c4ccc(CCC)cc4)cc3)n2)cc1,,> 10000,,,,,,,,,
COc1ccc(C(=O)Nc2ccccc2-c2nnn(-c3ccc(OC)cc3)n2)cc1,100,199,≤ 25,2.88,92,300,,,,,

# Source: ChEMBL document CHEMBL3875173, “Phenyltetrazolyl-phenylamides: Substituent impact on modulation capability and selectivity toward the efflux protein ABCG2 and investigation of interaction with the transporter” (Eur J Med Chem, 2016)
